Columns and labels:
Assay type in all cases: cell-based
[1] = test system: H460 cells; test: Cisplatin dose response, H460
Description: (§1) Cisplatin screen. Optimal cisplatin working concentrations were established via dose response and cell doubling time. In the dose response, 3,000 A549 and H460 cells were plated in 96-well plates and treated with a range of cisplatin concentrations. After 72 h, CellTiter-Glo 2.0 (Promega, cat. no. G9242) was added to the media (1:1), and luminescence was recorded. For the cell doubling time, 1M cells were plated in 10 cm plates. Different cisplatin concentrations were added at indicated concentrations, and living cells counted every 2-3 days up to 14 days. Cisplatin survival screen: 48M and 96M cells were plated at TO and treated with 6.5 μM and 25 μM of Cisplatin for A549 cells and 2 μM and 10 μM for H460 cells, corresponding to IC30 and IC80, respectively. Cell pellets were collected after 14 and 21 days. The death screen was carried out as follows: 144M cells were seeded and treated with cisplatin at 2 μM and 1 μM (IC20) for A549 and H460, respectively. Every 24 h, for five days, floating (dead) cells were collected and pooled together for gDNA extraction.

[2] = test system: A549 cells; test: Cisplatin dose response, A549
Description: as §1

[3] = test system: Tier II genes; test: Tier II genes' expression following cisplatin treatment

N.N.[Cl][Pt][Cl] [Cisplatin, cisplatin]
IC20 [1]: 1 µM | IC30 [1]: 2 µM | IC80 [1]: 10 µM | IC20 [2]: 2 µM | IC30 [2]: 6.5 µM | IC80 [2]: 25 µM | Tier II genes' expression [3]: upregulation

From patent publication US20250002914A1, “NUCLEIC ACID AGENTS FOR TREATMENT OF NON-SMALL-CELL LUNG CANCER” (UNIVERSITY COLLEGE DUBLIN, priority 2021, published 2025)
